# According to patent US20230085307A1, “PYRIDAZINONE COMPOUND AND HERBICIDE” (NISSAN CHEMICAL CORPORATION, priority 2019, published 2023):
# What was measured:
# late watergrass [1] = assay: Test Example 1: herbicidal activity, application before weed generation under submerged conditions (Table 16, symbol A); type: in vivo, late watergrass (Echinochloa oryzicola); conditions: 320 g/ha applied herbicide
# Procedure, shortened: (§1)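 Emulsion formulation, water-diluted to set dose, was put onto the flooded surface (4 cm depth, alluvial soil) the same day weeds were sown and 2.5-leaf rice transplanted. After 3 weeks at 25-30 °C under glass, each species was rated 0 (≤5% kill) to 5 (≥90% kill).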
# Japanese bulrush [2] = assay: Test Example 1: herbicidal activity, application before weed generation under submerged conditions (Table 16, symbol B); type: in vivo, Japanese bulrush (Schoenoplectus juncoides); conditions: 320 g/ha applied herbicide
# Procedure, shortened: as §1
# oval-leafed pondweed [3] = assay: Test Example 1: herbicidal activity, application before weed generation under submerged conditions (Table 16, symbol C); type: in vivo, oval-leafed pondweed (Monochoria vaginalis); conditions: 320 g/ha applied herbicide
# Procedure, shortened: as §1
# late watergrass [4] = assay: Test Example 2: herbicidal activity, application during weed generation under submerged conditions (Table 17, symbol A); type: in vivo, late watergrass (Echinochloa oryzicola); conditions: AAH 320 g/ha; application during weed generation, submerged conditions
# Procedure, shortened: (§2)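 3-wk visual-criteria score after one water-surface dose. Emulsion formulation, water-diluted to set rate; applied at 1–2 leaf stage; alluvial soil, 4 cm standing water; seeds co-sown; greenhouse 25–30° C.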
# Japanese bulrush [5] = assay: Test Example 2: herbicidal activity, application during weed generation under submerged conditions (Table 17, symbol B); type: in vivo, Japanese bulrush (Schoenoplectus juncoides); conditions: AAH 320 g/ha; application during weed generation, submerged conditions
# Procedure, shortened: as §2
# oval-leafed pondweed [6] = assay: Test Example 2: herbicidal activity, application during weed generation under submerged conditions (Table 17, symbol C); type: in vivo, oval-leafed pondweed (Monochoria vaginalis); conditions: AAH 320 g/ha; application during weed generation, submerged conditions
# Procedure, shortened: as §2
# barnyard grass = assay: Test Example 3: herbicidal effect by foliage application, Wagner pot (Table 18, symbol H); type: in vivo, barnyard grass (Echinochloa crus-galli); conditions: 320 g/ha
# Procedure, shortened: (§3)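 Plants were sown in alluvial soil held under 0.1–0.5 cm standing water and grown 14 days in a greenhouse at 25–30 °C. An emulsifiable formulation, water-diluted to the set dose, was then sprayed onto the foliage, and effects were scored three weeks later using previously defined criteria.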
# Chinese sprangletop = assay: Test Example 3: herbicidal effect by foliage application, Wagner pot (Table 18, symbol D); type: in vivo, chinese sprangletop (Leptochloa chinensis); conditions: 320 g/ha
# Procedure, shortened: as §3
# rice flat sedge = assay: Test Example 3: herbicidal effect by foliage application, Wagner pot (Table 18, symbol E); type: in vivo, rice flat sedge (Cyperus iria); conditions: 320 g/ha
# Procedure, shortened: as §3
Compound,Herbicidal effect on A: late watergrass (grade 0-5) (late watergrass [1]),Herbicidal effect on B: Japanese bulrush (grade 0-5) (Japanese bulrush [2]),Herbicidal effect on C: oval-leafed pondweed (grade 0-5) (oval-leafed pondweed [3]),"herbicidal effect rating, A: late watergrass (late watergrass [4])","herbicidal effect rating, B: Japanese bulrush (Japanese bulrush [5])","herbicidal effect rating, C: oval-leafed pondweed (oval-leafed pondweed [6])","herbicidal effect on H (barnyard grass), rating 0-5 (barnyard grass)","herbicidal effect on D (Chinese sprangletop), rating 0-5 (Chinese sprangletop)","herbicidal effect on E (rice flat sedge), rating 0-5 (rice flat sedge)"
C=C(C)CCOc1ccc(-c2sc3ccccc3c2-c2c(O)c(C)nn(C)c2=O)cc1 [1-210],5 (Herbicidal rate of 90% or more (almost completely withered)),5 (Herbicidal rate of 90% or more (almost completely withered)),5 (Herbicidal rate of 90% or more (almost completely withered)),3 (Herbicidal rate of 40% or more and less than 70%),3 (Herbicidal rate of 40% or more and less than 70%),4 (Herbicidal rate of 70% or more and less than 90%),5 (Herbicidal rate of 90% or more (almost completely withered)),5 (Herbicidal rate of 90% or more (almost completely withered)),4 (Herbicidal rate of 70% or more and less than 90%)
CSCCCOc1ccc(-c2sc3ccccc3c2-c2c(O)c(C)nn(C)c2=O)cc1 [1-222],5 (Herbicidal rate of 90% or more (almost completely withered)),4 (Herbicidal rate of 70% or more and less than 90%),4 (Herbicidal rate of 70% or more and less than 90%),5 (Herbicidal rate of 90% or more (almost completely withered)),3 (Herbicidal rate of 40% or more and less than 70%),4 (Herbicidal rate of 70% or more and less than 90%),5 (Herbicidal rate of 90% or more (almost completely withered)),5 (Herbicidal rate of 90% or more (almost completely withered)),4 (Herbicidal rate of 70% or more and less than 90%)
